In PubChem BioAssay (NCI) one finds TGI and GI50 data, which are given here for 14 molecules.

Some test systems named below: SF-295 CNS; HCC-2998 colon; MDA-MB-231 breast; SK-MEL-2 melanoma; OVCAR-5 ovarian; OVCAR-3 ovarian; CAKI-1 renal; UACC-62 melanoma; MDA-N; RPMI-8226 leukemia.
Holding throughout (assay): growth of human tumour cells (NCI), 48 h

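Results reflect a 48-hour exposure of cells in 96-well plates to compound at five concentrations. GI50 is the concentration that inhibits growth by half. TGI denotes the concentration required for complete inhibition of growth.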 Where only a bound is given, the exact number is not on record here.

With `COc1c(C)c(C/C=C(\C)CC/C=C(\C)CCC=C(C)C)c(OC)c(OC)c1OC`, the TGI in the assay with SF-295 CNS, in the assay on HCC-2998 colon, in the assay on MDA-MB-231 breast, in the assay on SK-MEL-2 melanoma, with OVCAR-5 ovarian and with OVCAR-3 ovarian was over 100 µM each time. Also, the TGI in the assay with CAKI-1 renal, with UACC-62 melanoma and with MDA-N was over 100 µM each time.

Consider `O=C(Nc1cccc(-n2cc(-c3ccncc3)c(-c3ccc(O)c(Cl)c3)n2)c1)c1cccc(C(F)(F)F)c1`, for which the GI50 with SF-295 CNS is 2980 nM; in the assay on HCC-2998 colon, 4.37 µM; in the assay with MDA-MB-231 breast, 1430 nM; in the assay on SK-MEL-2 melanoma it was 4.54 µM; in the assay on OVCAR-5 ovarian it was 23.7 µM; in the assay on CAKI-1 renal it was 2830 nM. In addition, the GI50 with UACC-62 melanoma is 6.52 µM; in the assay on RPMI-8226 leukemia, 2040 nM. In addition, the TGI with SF-295 CNS was over 100 µM; in the assay with HCC-2998 colon, over 100 µM; with MDA-MB-231 breast, 5.3 µM; in the assay with SK-MEL-2 melanoma it was 38.1 µM; with OVCAR-5 ovarian, over 100 µM; with CAKI-1 renal it was over 100 µM. The results for the TGI in the assay with UACC-62 melanoma and in the assay on RPMI-8226 leukemia were over 100 µM and 10.6 µM, respectively.

As to `O=[N+]([O-])c1cccnc1-n1cnc2ccccc21`, the TGI in the assay with SF-295 CNS, in the assay on HCC-2998 colon, with MDA-MB-231 breast, with SK-MEL-2 melanoma, with OVCAR-5 ovarian and with OVCAR-3 ovarian was over 100 µM in each case. The TGI with CAKI-1 renal, in the assay with UACC-62 melanoma and in the assay with RPMI-8226 leukemia was over 100 µM in each case.

As to `Nc1ncnc2c1ncn2Cc1cccc(CCl)c1`, the TGI in the assay on SF-295 CNS was 41.8 µM; with MDA-MB-231 breast it was 34 µM; with SK-MEL-2 melanoma, 31.9 µM; with OVCAR-5 ovarian it was 32.1 µM; with OVCAR-3 ovarian, 32.3 µM; in the assay on CAKI-1 renal it was 37 µM. In addition, the values for the TGI with UACC-62 melanoma and in the assay with RPMI-8226 leukemia were 25.8 µM and 44.5 µM, respectively.

On to `CC1(C2CCC3(C)OC3C2)CO1` (stereo not drawn), for which the TGI with SF-295 CNS, in the assay with HCC-2998 colon, with SK-MEL-2 melanoma, with OVCAR-5 ovarian, in the assay with OVCAR-3 ovarian and with CAKI-1 renal was over 100 µM throughout. Further, the TGI in the assay with UACC-62 melanoma and in the assay on RPMI-8226 leukemia was over 100 µM throughout.

For `O=C(NNCc1ccc(Cl)cc1)Nc1cccc2ccccc12`, the TGI with SF-295 CNS, in the assay with HCC-2998 colon, in the assay with SK-MEL-2 melanoma, with OVCAR-5 ovarian, with OVCAR-3 ovarian and with CAKI-1 renal was over 100 µM throughout. In addition, the values for the TGI in the assay on UACC-62 melanoma, in the assay with MDA-N and in the assay with RPMI-8226 leukemia were over 100 µM, over 100 µM and 84.4 µM, respectively.

Consider `CN1C(=O)C(O)CC1c1cccc(C(F)(F)F)c1` (stereo not drawn), for which the TGI in the assay on SF-295 CNS, with HCC-2998 colon, in the assay with MDA-MB-231 breast, in the assay on SK-MEL-2 melanoma, in the assay on OVCAR-5 ovarian and in the assay with OVCAR-3 ovarian was over 100 µM each time. In addition, the TGI in the assay on CAKI-1 renal, in the assay on UACC-62 melanoma and in the assay with RPMI-8226 leukemia was over 100 µM in each case.

Take `O=C(c1ccco1)N(C(=S)OC12CC3CC(CC(C3)C1)C2)c1ccccc1`: the TGI in the assay with SF-295 CNS was over 100 µM; in the assay on HCC-2998 colon it was 72 µM; in the assay with MDA-MB-231 breast, over 100 µM; with SK-MEL-2 melanoma, 40.9 µM; in the assay with OVCAR-5 ovarian, over 100 µM; in the assay with OVCAR-3 ovarian, 77.4 µM. For the same molecule, the values for the TGI in the assay on CAKI-1 renal, in the assay with UACC-62 melanoma and with MDA-N were over 100 µM, 73.4 µM and 83.9 µM, respectively.

For the molecule `COc1ccc2nc3n(c2c1)CCc1cc(OC)c(OC)cc1-3`, the TGI in the assay on SF-295 CNS was over 100 µM; in the assay with HCC-2998 colon it was 52.9 µM; in the assay on MDA-MB-231 breast, over 100 µM; in the assay with SK-MEL-2 melanoma, over 100 µM; in the assay on OVCAR-5 ovarian, over 100 µM; with OVCAR-3 ovarian it was over 100 µM. For the same molecule, the TGI with CAKI-1 renal, in the assay on UACC-62 melanoma and in the assay with MDA-N was over 100 µM in each case.

For the molecule `CC(C)(C)C1CC[C@H](O)[C@H]([C@H](O)CC2CC(=O)N(c3ccccc3)C(=O)C2)C1` (stereo partly drawn), the TGI with SF-295 CNS, with HCC-2998 colon, in the assay with MDA-MB-231 breast, with OVCAR-5 ovarian, in the assay with OVCAR-3 ovarian and in the assay on CAKI-1 renal was over 100 µM in each case. Also, the TGI in the assay with UACC-62 melanoma and in the assay on MDA-N was over 100 µM throughout.

With `COC(=O)c1c(-c2ccc(Cl)cc2)cc2c3ccccc3n(C)c2c1C(=O)OC`, the TGI in the assay on SF-295 CNS, in the assay on MDA-MB-231 breast, with SK-MEL-2 melanoma, in the assay on OVCAR-5 ovarian, with OVCAR-3 ovarian and with CAKI-1 renal was over 100 µM each time. The TGI with UACC-62 melanoma and in the assay on MDA-N was over 100 µM throughout.

As to `C=C1C(=O)O[C@H]2[C@H]3O[C@@H](C[C@@H]12)[C@](C)(O)CC[C@@H]1O[C@@]1(C)CCC[C@H]3C`, the TGI with SF-295 CNS is over 100 µM; in the assay with HCC-2998 colon, 55.5 µM; in the assay with MDA-MB-231 breast, 65.8 µM; in the assay with SK-MEL-2 melanoma, 43.6 µM; with OVCAR-5 ovarian, over 100 µM; in the assay with OVCAR-3 ovarian it was 46.6 µM. Also, the TGI is 27.6 µM with CAKI-1 renal, 33.2 µM in the assay with UACC-62 melanoma and over 100 µM with RPMI-8226 leukemia.

For the molecule `C=CC1CN2CCC1CC2C(O)c1ccnc2ccccc12` (stereo not drawn), the TGI in the assay with SF-295 CNS, in the assay on HCC-2998 colon, in the assay on MDA-MB-231 breast, with SK-MEL-2 melanoma, in the assay on OVCAR-5 ovarian and in the assay with OVCAR-3 ovarian was over 100 µM each time. The TGI in the assay on CAKI-1 renal and in the assay on UACC-62 melanoma was over 100 µM in each case. Also, in the assay with HCC-2998 colon, the GI50 is over 100 µM.

For the molecule `Cc1[nH]c(=O)[nH]c(=S)c1C(=O)Nc1cccc2cc3ccccc3cc12`, the TGI in the assay on SF-295 CNS, in the assay on HCC-2998 colon, with SK-MEL-2 melanoma, in the assay on OVCAR-5 ovarian, in the assay on OVCAR-3 ovarian and in the assay with CAKI-1 renal was over 100 µM throughout. Further, the TGI with UACC-62 melanoma and in the assay on RPMI-8226 leukemia was over 100 µM throughout.
